Assay results taken from publication PMC9389804 (Journal of Hematology & Oncology, 2022).
Several values for one entry are separate records, joined by “and”; a condition that tells them apart may be missing. Identical values can stand only once.

Assay: safety assessments (adverse events, NCI CTCAE)
[1] = Grade 3/4 hematologic TRAE, all 165 patients
[2] = TRAE G 3/4, Accelerated phase CML n=38
[3] = TRAE G 3/4, Chronic phase CML n=127
[4] = TRAE any grades, Accelerated phase CML n=38
[5] = TRAE any grades, Chronic phase CML n=127

Protocol: Adverse events were assessed continuously and graded according to NCI CTCAE v5.0.18. Complete blood count with differential, serum chemistries, and physical examinations were performed before the study; weekly during Cycles 1 and 2; on alternate weeks in Cycles 3 and 4; and monthly thereafter.

Molecule `Cc1ccc(C(=O)Nc2ccc(CN3CCN(C)CC3)c(C(F)(F)F)c2)cc1C#Cc1cnc2[nH]ncc2c1` [olverembatinib] has an Anemia [1] of 23.0%, a Neutropenia [1] of 11.5% and a Thrombocytopenia [1] of 51.5%. For the same molecule, the Anemia [2] was 12 (31.6) n (%), the Arthralgia [2] was 1 (2.6) n (%) and the Asthenia [2] was 0 n (%). For the same molecule, the Hematologic [2] was 26 (68.4) n (%), the Hyperbilirubinemia [2] was 1 (2.6) n (%) and the Hyperglycemia [2] was 0 n (%). For the same molecule, the Hypertriglyceridemia [2] was 1 (2.6) n (%), the Hypoalbuminemia [2] was 0 n (%) and the Hypocalcemia [2] was 0 n (%). For the same molecule, the Hypokalemia [2] was 1 (2.6) n (%), the Hyponatremia [2] was 0 n (%) and the Increased alanine aminotransferase [2] was 1 (2.6) n (%). For the same molecule, the Increased alkaline phosphatase [2] was 0 n (%), the Increased aspartate aminotransferase [2] was 2 (5.3) n (%) and the Increased creatine phosphokinase [2] was 1 (2.6) n (%). For the same molecule, the “Increased γ-glutamyl transferase” value [2] was 0 n (%), the Leukopenia [2] was 13 (34.2) n (%) and the Myalgia [2] was 0 n (%). The Neutropenia [2] was 8 (21.1) n (%), the Nonhematologic [2] was 20 (52.6) n (%) and the Pain in extremity [2] was 1 (2.6) n (%). The Proteinuria [2] was 1 (2.6) n (%), the Pyrexia [2] was 4 (10.5) n (%) and the Rash [2] was 0 n (%). The Sinus tachycardia [2] was 0 n (%), the Skin pigmentation [2] was 0 n (%) and the Thrombocytopenia [2] was 23 (60.5) n (%). The Treatment-related adverse events [2] was 34 (89.5) n (%), the Anemia [3] was 26 (20.5) n (%) and the Arthralgia [3] was 0 n (%). The Asthenia [3] was 0 n (%), the Hematologic [3] was 67 (52.8) n (%) and the Hyperbilirubinemia [3] was 3 (2.4) n (%). For the same molecule, the Hyperglycemia [3] was 1 (0.8) n (%), the Hypertriglyceridemia [3] was 11 (8.7) n (%) and the Hypoalbuminemia [3] was 0 n (%). For the same molecule, the Hypocalcemia [3] was 0 n (%), the Hypokalemia [3] was 1 (0.8) n (%) and the Hyponatremia [3] was 1 (0.8) n (%). The Increased alanine aminotransferase [3] was 3 (2.4) n (%), the Increased alkaline phosphatase [3] was 1 (0.8) n (%) and the Increased aspartate aminotransferase [3] was 2 (1.6) n (%). The Increased creatine phosphokinase [3] was 10 (7.9) n (%), the “Increased γ-glutamyl transferase” value [3] was 5 (3.9) n (%) and the Leukopenia [3] was 21 (16.5) n (%). The Myalgia [3] was 0 n (%), the Neutropenia [3] was 11 (8.7) n (%) and the Nonhematologic [3] was 61 (48.0) n (%). For the same molecule, the Pain in extremity [3] was 1 (0.8) n (%), the Proteinuria [3] was 5 (3.9) n (%) and the Pyrexia [3] was 5 (3.9) n (%). For the same molecule, the Rash [3] was 1 (0.8) n (%), the Sinus tachycardia [3] was 0 n (%) and the Skin pigmentation [3] was 0 n (%). For the same molecule, the Thrombocytopenia [3] was 62 (48.8) n (%), the Treatment-related adverse events [3] was 97 (76.4) n (%) and the Anemia (TRAE G 3/4, Total n=165) was 38 (23.0) n (%). The Arthralgia (TRAE G 3/4, Total n=165) was 1 (0.6) n (%), the Asthenia (TRAE G 3/4, Total n=165) was 0 n (%) and the Hematologic (TRAE G 3/4, Total n=165) was 93 (56.4) n (%). The Hyperbilirubinemia (TRAE G 3/4, Total n=165) was 4 (2.4) n (%), the Hyperglycemia (TRAE G 3/4, Total n=165) was 1 (0.6) n (%) and the Hypertriglyceridemia (TRAE G 3/4, Total n=165) was 12 (7.3) n (%). The Hypoalbuminemia (TRAE G 3/4, Total n=165) was 0 n (%), the Hypocalcemia (TRAE G 3/4, Total n=165) was 0 n (%) and the Hypokalemia (TRAE G 3/4, Total n=165) was 2 (1.2) n (%). For the same molecule, the Hyponatremia (TRAE G 3/4, Total n=165) was 1 (0.6) n (%), the Increased alanine aminotransferase (TRAE G 3/4, Total n=165) was 4 (2.4) n (%) and the Increased alkaline phosphatase (TRAE G 3/4, Total n=165) was 1 (0.6) n (%). For the same molecule, the Increased aspartate aminotransferase (TRAE G 3/4, Total n=165) was 4 (2.4) n (%), the Increased creatine phosphokinase (TRAE G 3/4, Total n=165) was 11 (6.7) n (%) and the “Increased γ-glutamyl transferase” value (TRAE G 3/4, Total n=165) was 5 (3.0) n (%). For the same molecule, the Leukopenia (TRAE G 3/4, Total n=165) was 34 (20.6) n (%), the Myalgia (TRAE G 3/4, Total n=165) was 0 n (%) and the Neutropenia (TRAE G 3/4, Total n=165) was 19 (11.5) n (%). For the same molecule, the Nonhematologic (TRAE G 3/4, Total n=165) was 81 (49.1) n (%), the Pain in extremity (TRAE G 3/4, Total n=165) was 2 (1.2) n (%) and the Proteinuria (TRAE G 3/4, Total n=165) was 6 (3.6) n (%). For the same molecule, the Pyrexia (TRAE G 3/4, Total n=165) was 9 (5.5) n (%), the Rash (TRAE G 3/4, Total n=165) was 1 (0.6) n (%) and the Sinus tachycardia (TRAE G 3/4, Total n=165) was 0 n (%). For the same molecule, the Skin pigmentation (TRAE G 3/4, Total n=165) was 0 n (%), the Thrombocytopenia (TRAE G 3/4, Total n=165) was 85 (51.5) n (%) and the Treatment-related adverse events (TRAE G 3/4, Total n=165) was 131 (79.4%) n (%) and 131 (79.4) n (%). The Anemia [4] was 24 (63.2) n (%), the Arthralgia [4] was 8 (21.1) n (%) and the Asthenia [4] was 6 (15.8) n (%). The Hematologic [4] was 36 (94.7) n (%), the Hyperbilirubinemia [4] was 13 (34.2) n (%) and the Hyperglycemia [4] was 10 (26.3) n (%). For the same molecule, the Hypertriglyceridemia [4] was 23 (60.5) n (%), the Hypoalbuminemia [4] was 6 (15.8) n (%) and the Hypocalcemia [4] was 19 (50.0) n (%). The Hypokalemia [4] was 10 (26.3) n (%), the Hyponatremia [4] was 10 (26.3) n (%) and the Increased alanine aminotransferase [4] was 9 (23.7) n (%). For the same molecule, the Increased alkaline phosphatase [4] was 5 (13.2) n (%), the Increased aspartate aminotransferase [4] was 10 (26.3) n (%) and the Increased creatine phosphokinase [4] was 5 (13.2) n (%). For the same molecule, the “Increased γ-glutamyl transferase” value [4] was 9 (23.7) n (%), the Leukopenia [4] was 19 (50.0) n (%) and the Myalgia [4] was 8 (21.1) n (%). For the same molecule, the Neutropenia [4] was 8 (21.1) n (%), the Nonhematologic [4] was 38 (100.0) n (%) and the Pain in extremity [4] was 7 (18.4) n (%). The Proteinuria [4] was 19 (50.0) n (%), the Pyrexia [4] was 9 (23.7) n (%) and the Rash [4] was 8 (21.1) n (%). For the same molecule, the Sinus tachycardia [4] was 7 (18.4) n (%), the Skin pigmentation [4] was 31 (81.6) n (%) and the Thrombocytopenia [4] was 33 (86.8) n (%). For the same molecule, the Treatment-related adverse events [4] was 38 (100.0) n (%), the Anemia [5] was 66 (52.0) n (%) and the Arthralgia [5] was 11 (8.7) n (%). For the same molecule, the Asthenia [5] was 12 (9.4) n (%), the Hematologic [5] was 102 (80.3) n (%) and the Hyperbilirubinemia [5] was 56 (44.1) n (%). The Hyperglycemia [5] was 33 (26.0) n (%), the Hypertriglyceridemia [5] was 72 (56.7) n (%) and the Hypoalbuminemia [5] was 20 (15.7) n (%). The Hypocalcemia [5] was 45 (35.4) n (%), the Hypokalemia [5] was 32 (25.2) n (%) and the Hyponatremia [5] was 28 (22.0) n (%). The Increased alanine aminotransferase [5] was 50 (39.4) n (%), the Increased alkaline phosphatase [5] was 16 (12.6) n (%) and the Increased aspartate aminotransferase [5] was 49 (38.6) n (%). For the same molecule, the Increased creatine phosphokinase [5] was 43 (33.9) n (%), the “Increased γ-glutamyl transferase” value [5] was 38 (29.9) n (%) and the Leukopenia [5] was 37 (29.1) n (%). The Myalgia [5] was 23 (18.1) n (%), the Neutropenia [5] was 18 (14.2) n (%) and the Nonhematologic [5] was 127 (100.0) n (%). For the same molecule, the Pain in extremity [5] was 14 (11.0) n (%), the Proteinuria [5] was 65 (51.2) n (%) and the Pyrexia [5] was 21 (16.5) n (%). For the same molecule, the Rash [5] was 19 (15.0) n (%), the Sinus tachycardia [5] was 23 (18.1) n (%) and the Skin pigmentation [5] was 108 (85.0) n (%). The Thrombocytopenia [5] was 93 (73.2) n (%), the Treatment-related adverse events [5] was 127 (100.0) n (%) and the Anemia (TRAE any grades, Total n=165) was 90 (54.5) n (%). For the same molecule, the Arthralgia (TRAE any grades, Total n=165) was 19 (11.5) n (%) and the Asthenia (TRAE any grades, Total n=165) was 18 (10.9) n (%).
